For series [1], the target named is α-glucosidase from Rominococcus obeum (Blautia obeum, UniProt A5ZY13). The series can be described thus: Enzymatic kinetics of α-glucosidase inhibition (pNPG substrate). The format is biochemical. On the procedure: The kinetic studies for PTP1B and α-glucosidase were carried out under the same conditions described in the references.
Series [2] can be described thus: Cytotoxic effect on Human Foreskin fibroblasts (SRB). The format is cell-based. Particulars: HFF-1 cells. On the procedure:
However, at high concentrations, they can be harmful to cells. For humans, doses less than 100 mg/day are considered safe. […] Therefore, we conducted cytotoxicity assays on Human Foreskin fibroblasts (HFF-1) and an AOT on female Wistar rats to assess their safety.
In a 96-well plate, 7000 cells per well of Human Foreskin fibroblasts (HFF-1) were cultured. […] Untreated cells were also included as a negative control. At the end of the incubation period, the cell contents were precipitated with 50 µL of a 50% aqueous solution of trichloroacetic acid (TCA) at 4 °C for 1 h. The supernatant was discarded and washed 5 times with distilled water. Afterward, the plates were allowed to dry at room temperature. The cell contents were incubated with 100 µL of a 0.04% sulforhodamine B (SRB) solution for 1 h at room temperature. The excess SRB was removed by washing with a 1% aqueous acetic acid solution. […] With the data obtained, the viability of treated cells was calculated by comparing the control without treatment. CC50 value was determined by employing BioStat Pro 5.9.8 software (AnalystSoft Inc., Brandon, FL, USA).

Series [3] deals with streptozotocin-induced diabetic rats. As to the kind of experiment: Weekly fasting glucose in streptozotocin-induced diabetic rats. The format is in vivo, Wistar rat. Particulars: after 7 and 14 days of treatment (weeks 6 and 7). On the procedure: (§1) After a week of acclimation, 35 male Wistar rats were given a single intraperitoneal dose of STZ (Sigma Chemical Co. Toluca, Estado de México, Mexico) at a dosage of 45 mg/kg of body weight, after fasting for 12 h overnight with free access to water. To prevent initial drug-induced hypoglycemia mortality, these animals were given a 10% sucrose solution 24 h after administration. STZ was dissolved in 0.1 M of sodium citrate buffer (pH 4.5) and administered in a final volume of 5 mL/kg. A week after STZ injection, diabetes in streptozotocin rats was confirmed by measuring fasting blood glucose (by glucose oxidase method). Animals with a blood glucose (tail vein) above 126 mg/dL were considered diabetic and used for the experiment to create groups 2, 3, 4, 5, 6, and 7 [1, 13]. Blood glucose levels were measured using a glucometer (Accu-Chek Active, Roche, Mannheim, Germany) and reactive strips (Accu-Chek Active Glucose test strips, Roche). The presence of hyperglycemia and insulin level confirmed a model very similar to T2D in humans. For the pharmacological study, the final number of animals was 35 male rats, with 3 rats being sacrificed during the treatment stage. One was administered with FC-114 and two with acarbose. The first rat was damaged during oral glucose administration in the OGTT at week 5, and the other rats had gastrointestinal complications in week 7.
(§2) The diabetic animals in group 2 (untreated) were given 4% v/v aqueous EtOH solution (vehicle of treatments) in a volume of 6.5 mL/kg body weight. The other groups (3–7) received different treatments for 14 days (weeks 5 to 7). […] All of the treatments were at equimolar doses of PIO and adjusted to the weekly weight of each rat. […] The commercial PIO tablet (30 mg) was crushed in 7.5 mL of vehicle and given to each animal in 4.0 mg/mL of suspension. The FC-114 and FC-122 suspensions were created at 6.2 and 6.0 mg/mL, respectively. The commercial acarbose tablet (50 mg) was crushed in 7.5 mL of the vehicle and given to each animal in a suspension of 6.6 mg/mL. Each suspension was used within 2 days of its preparation, and the administration volume was near to 2.5 mL for each rat.

For series [4] the test system is unchanged. As to the kind of experiment: Animal weight, food and water consumption in streptozotocin-induced diabetic rats. The format is in vivo, Wistar rat. As to the method: Six female (three for each compound: FC-114 and FC-122) (220 ± 10 g, for the acute toxicity assay) and forty male (215 ± 20 g, for the pharmacologic study) albino Wistar rats were acquired from the Isolation and Animal Facility Unit, Facultad de Estudios Superiores Cuautitlán (FESC), Universidad Nacional Autónoma de México (UNAM). They were kept in standard polypropylene boxes under controlled temperature (24 ± 4 °C) on a 12 h light/dark cycle and provided conventional food (formula 5001, Rat Chow) and purified water ad libitum. […] At the end of the experiment, the animals were taken to the humanitarian endpoint by the intraperitoneal (ip) administration of 75 mg/kg of sodium pentobarbital to perform a necropsy in the bioterium of FESC, UNAM. During the necropsy, blood serum was extracted to quantify glucose, triacylglycerides, cholesterol, and insulin. The study was conducted based on the guidelines of the Declaration of Helsinki and approved by the Institutional Review Board: Internal Committee for the Care and Use of Experimentation Animals (CICUAE, according to the initials in Spanish, C23_02 on March 2023) of the FESC UNAM (Mexico). It complies with the Mexican norm for this matter (NOM-062-ZOO-1999, Technical Specifications for the Production, Care, and Use of Laboratory Animals, SAGARPA), as well as the Guide for the Care and Use of Laboratory Animals of the National Research Council and National Institutes of Health (NIH Publications No. 8023, revised 1978).
as §1, §2

Series [5] has the same test system. As to the kind of experiment: Oral glucose tolerance test in streptozotocin-induced diabetic rats. In kind it is in vivo, Wistar rat. Also on record: AUC of the OGTT: unit not given here. On the procedure:
as §1, §2
The OGTT was carried out in weeks 3, 4, 5, 6, and 7. Prior to the OGTT, all animal groups fasted overnight for eight hours with free access to water. Each rat was weighed and then received a 2 g/kg glucose overload orally and blood samples were taken from the tail vein [13, 97]. Glucose levels were measured using a glucometer (Accu-Chek Active, Roche, Mannheim, Germany) at 0, 30, 60, 90, 120, and 180 min after glucose administration. The AUC of the OGTT was calculated using the blood glucose concentration over time and the GraphPad Prism 8.0.1 software package (GraphPad Software; Science Inc., San Diego, CA, USA) was used to compare the effectiveness of the treatments.

Setting [6] is: after 7 days of treatment (weeks 5 to 6).
[7] abbreviates: Week 5 (day 1 of treatment), oral, glibenclamide 0.6, FC-114 51.3, FC-122 49.1, PIO 30, acarbose 54.3 mg/kg/day.
[8] abbreviates: Week 6 (day 7 of treatment), same doses.
Setting [9] is: Week 7 (day 14 of treatment), same doses.

In general, Ki refers to a measure of affinity in units of concentration, obtained from inhibition or displacement. Usually CC50 stands for the concentration that lowers cell viability or growth by half.

Sequence of α-glucosidase from Rominococcus obeum (A5ZY13 entry or part of it): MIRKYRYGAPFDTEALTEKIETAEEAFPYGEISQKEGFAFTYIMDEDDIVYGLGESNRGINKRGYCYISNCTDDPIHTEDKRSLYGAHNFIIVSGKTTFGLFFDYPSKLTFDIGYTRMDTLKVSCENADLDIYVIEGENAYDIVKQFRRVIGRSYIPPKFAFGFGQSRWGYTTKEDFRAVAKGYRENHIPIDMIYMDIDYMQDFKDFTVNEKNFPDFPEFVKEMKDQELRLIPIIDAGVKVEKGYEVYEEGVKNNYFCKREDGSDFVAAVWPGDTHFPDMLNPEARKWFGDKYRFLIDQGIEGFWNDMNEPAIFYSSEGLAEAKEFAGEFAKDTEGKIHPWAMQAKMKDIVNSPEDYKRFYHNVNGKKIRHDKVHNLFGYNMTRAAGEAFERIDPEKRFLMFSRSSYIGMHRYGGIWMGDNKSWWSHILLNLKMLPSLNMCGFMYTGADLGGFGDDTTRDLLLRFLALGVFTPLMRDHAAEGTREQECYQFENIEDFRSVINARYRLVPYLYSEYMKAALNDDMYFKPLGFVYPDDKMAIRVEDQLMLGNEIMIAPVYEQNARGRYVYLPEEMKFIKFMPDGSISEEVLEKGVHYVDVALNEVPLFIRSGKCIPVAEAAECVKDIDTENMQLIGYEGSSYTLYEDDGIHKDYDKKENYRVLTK

With `Cc1ccc(-n2ncc3c2C(C)(C)[C@@H]2CC[C@]4(C)[C@H](C(=O)C=C5[C@@H]6C[C@@](C)(C(=O)O)CC[C@]6(C)CC[C@]54C)[C@@]2(C)C3)cc1` [FC-122], the “Inhibition type (α-glucosidase)” value in series [1] (Lineweaver-Burk plots) is “linear-mixed type”. Besides, the affinity in series [1] (substrate pNPG, Lineweaver-Burk) corresponds to a Ki of 5.2 µM. Further, in series [1] (vs acarbose), the “fold better potency than acarbose (Ki)” value is on record as ~ 5 fold. In series [2] (HFF-1 human foreskin fibroblasts), this compound came in with a CC50 at 48 h of 68.4 ± 1 µM. For the same compound, the fasting glucose levels entry in series [3] is reported as “halt the continuous increase of glucose levels”. The food intake result in series [4] (setting [6]) is given as “reduced food intake to near-normal levels”. In addition, in series [4] (after 14 days of administration), the water consumption entry was “decreased water consumption compared to acarbose and FC-114”. Also, the “AUC of the OGTT” value in series [5] (setting [7]) is listed as 58,941; in series [5] (setting [8]) it was 57,003; in series [5] (setting [9]), 53,076. Moreover, the “glucose blood levels in OGTT compared to untreated animals” value in series [5] (after 14 days of administration, ANOVA/Bonferroni) was “ranked third”.
`CC1(C)c2[nH]c3ccc(C(F)(F)F)cc3c2C[C@]2(C)[C@H]3C(=O)C=C4[C@@H]5C[C@@](C)(C(=O)O)CC[C@]5(C)CC[C@@]4(C)[C@]3(C)CC[C@@H]12` [FC-114]: the α-glucosidase inhibitory activity entry in series [1] (range of concentrations tested) is “not active”. In series [2], it took 59.5 ± 3 µM to reach half-maximal cytotoxicity (CC50 at 48 h). Also, the fasting glucose levels entry in series [3] was “halt the continuous increase of glucose levels”. Also, in series [4] (14 days of treatment, weeks 5 to 7), the “animal weight compared to the untreated group (T2D)” value is given as “difference in weight”. The food intake result is listed as “maintained their increased food consumption” in series [4] (setting [6]) and “tended to decrease toward normal levels” in series [4] (after 14 days of treatment (weeks 6 to 7)). Moreover, the entries for the “AUC of the OGTT” value in series [5] (setting [7]), in series [5] (setting [8]) and in series [5] (setting [9]) were 53,895, 62,944 and 57,131, respectively.

The values are drawn from paper PMC10454726 (International Journal of Molecular Sciences, 2023).
